# Assay results taken from PMC5107896 (Scientific Reports, 2016).
# Assays:
# Type in all cases: biochemical
# [1] = target: Factor Xa (F10) (Homo sapiens, UniProt P00742); experiment: SensoLyte Rh110 Factor Xa Assay Kit (enzyme inhibition)
# [2] = target: T1, Prostaglandin G/H synthase 2 (PTGS2/COX2) (Ovis aries, UniProt P79208); experiment: Colorimetric COX (ovine) inhibitor screening assay kit (Cayman)
# T1 sequence (P79208 17-603): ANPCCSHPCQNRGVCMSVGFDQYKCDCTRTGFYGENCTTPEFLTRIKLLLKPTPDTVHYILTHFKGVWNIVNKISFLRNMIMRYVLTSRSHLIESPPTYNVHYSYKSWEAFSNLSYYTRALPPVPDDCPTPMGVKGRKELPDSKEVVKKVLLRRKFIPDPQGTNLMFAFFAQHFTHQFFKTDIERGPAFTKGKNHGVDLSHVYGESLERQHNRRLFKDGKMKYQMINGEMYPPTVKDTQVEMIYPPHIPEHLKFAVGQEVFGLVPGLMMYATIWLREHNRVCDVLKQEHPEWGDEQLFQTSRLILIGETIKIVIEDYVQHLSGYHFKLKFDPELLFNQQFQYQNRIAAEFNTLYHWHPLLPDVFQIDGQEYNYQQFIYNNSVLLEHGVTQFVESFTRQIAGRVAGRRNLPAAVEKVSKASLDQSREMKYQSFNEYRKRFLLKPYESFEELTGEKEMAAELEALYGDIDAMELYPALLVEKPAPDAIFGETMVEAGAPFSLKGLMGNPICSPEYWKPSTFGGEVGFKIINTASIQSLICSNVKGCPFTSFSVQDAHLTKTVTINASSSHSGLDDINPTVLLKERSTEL
# [3] = target: T2, Monoamine oxidase A (MAOA) (Homo sapiens, UniProt P21397); experiment: in vitro MAOA inhibition assay (enzyme purchased)
# T2 sequence (P21397 1-527): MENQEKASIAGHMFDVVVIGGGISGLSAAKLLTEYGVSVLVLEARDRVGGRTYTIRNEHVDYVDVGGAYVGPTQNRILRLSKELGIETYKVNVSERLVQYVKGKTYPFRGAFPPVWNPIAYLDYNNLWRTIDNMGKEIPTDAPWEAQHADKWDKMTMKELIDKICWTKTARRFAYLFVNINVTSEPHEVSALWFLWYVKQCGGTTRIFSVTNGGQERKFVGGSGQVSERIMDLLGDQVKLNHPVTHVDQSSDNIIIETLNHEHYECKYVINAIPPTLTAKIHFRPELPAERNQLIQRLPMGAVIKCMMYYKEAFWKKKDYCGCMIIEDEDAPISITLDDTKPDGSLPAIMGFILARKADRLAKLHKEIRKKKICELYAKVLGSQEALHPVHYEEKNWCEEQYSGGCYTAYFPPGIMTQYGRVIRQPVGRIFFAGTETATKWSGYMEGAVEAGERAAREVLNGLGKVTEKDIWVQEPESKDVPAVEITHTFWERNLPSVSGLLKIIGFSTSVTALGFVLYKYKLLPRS
# Factor Xa (F10), sequence (P00742 41-179): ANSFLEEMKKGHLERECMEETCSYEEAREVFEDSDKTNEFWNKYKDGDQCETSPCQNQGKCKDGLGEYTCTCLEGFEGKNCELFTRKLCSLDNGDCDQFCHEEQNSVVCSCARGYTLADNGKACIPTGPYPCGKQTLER
# Factor Xa (F10), sequence (P00742 235-488): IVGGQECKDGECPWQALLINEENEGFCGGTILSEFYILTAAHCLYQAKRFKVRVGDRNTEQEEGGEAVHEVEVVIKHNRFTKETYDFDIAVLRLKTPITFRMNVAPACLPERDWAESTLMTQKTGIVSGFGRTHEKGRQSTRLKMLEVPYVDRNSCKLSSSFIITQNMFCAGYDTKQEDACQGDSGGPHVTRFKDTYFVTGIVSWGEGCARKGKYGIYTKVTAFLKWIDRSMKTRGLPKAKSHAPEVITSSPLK
structure (smiles),measurement,setting,value
O=C(/C=C/c1ccc(O)c(O)c1/C=C/c1ccc(O)c(O)c1)O[C@H](Cc1ccc(O)c(O)c1)C(=O)O [salvianolic acid A],IC50,[1],90 nM
O=c1c(O)c(-c2ccc(O)cc2)oc2cc(O)cc(O)c12 [kaempferol],IC50,[2],37400 nM
O=c1cc(-c2ccc(O)c(O)c2)oc2cc(O)cc(O)c12 [luteolin],IC50,[3],10 nM
